Assay results reported in patent US4874891A, “Open "D" ring hormone analogs” (Washington University, priority 1986, dated 1989).

Target: T1, 17β-HSD (Homo sapiens, UniProt P14061)
T1 sequence (P14061 1-328): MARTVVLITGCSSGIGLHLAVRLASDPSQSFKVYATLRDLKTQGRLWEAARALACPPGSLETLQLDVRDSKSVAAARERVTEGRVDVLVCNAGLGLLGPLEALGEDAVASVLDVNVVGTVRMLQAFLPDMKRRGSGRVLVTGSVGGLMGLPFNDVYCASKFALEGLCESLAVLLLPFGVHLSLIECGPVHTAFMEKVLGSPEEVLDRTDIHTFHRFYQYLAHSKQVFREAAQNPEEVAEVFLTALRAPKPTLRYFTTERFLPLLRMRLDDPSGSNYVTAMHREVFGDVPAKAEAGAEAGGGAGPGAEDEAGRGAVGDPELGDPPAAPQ
Assay: Time-dependent inactivation of 17β-HSD (NADH production at 340 nm with estradiol and NAD+)
Format: biochemical
Method: The compounds of the invention prepared as described above were tested for their ability to affect the reaction catalyzed by 17β-HSD, as follows.
Approximately 5 μl of a 2-20 mM solution of the test compound in absolute alcohol was added to the incubation mixture, which contained:
200 μM NAD^+ (100 μl of 2 mM stock);
795 μl 100 mM sodium carbonate buffer (pH 9.2, containing 20% glycerol) or 795 μl phosphate buffer (pH 7.4, 20% glycerol);
90 μg of enzyme (supplied as 100 μl of 0.9 μg/μl stock).
Aliquots were removed at intervals and added to 950 μl of assay cocktail, which contained:
100 mM sodium carbonate buffer;
60 μM estradiol in propylene glycol stock;
0.8% human serum albumin.
The activity remaining in the incubation mixture was assessed by NADH production in the assay cocktail monitored by adsorption at 340 nm every 15 sec for 2 min with an automated spectrophotometer.
All aqueous stock solutions were prepared in 100 mM sodium carbonate buffer, 20% glycerol, to maintain enzyme stability. Where additional components were added, such as glutathione, volumes were adjusted accordingly. To assess loss of enzyme activity independent of the test compound, 5 μl ethanol was added in place of steroid stock solution to the assay cocktail.
When aliquots were withdrawn less than 3 min apart, the aliquot was quenched in 900 μl assay buffer without NAD^+ and supplemented with 5 mM glutathione: after all aliquots were withdrawn, samples were assayed by adding NAD^+ (50 μl of a 4 mM stock) and monitored as above.
Compounds of the invention were evaluated in terms of Km, Vmax, and Rp.

C#CC(O)C1(C)CCC2c3ccc(O)cc3CCC2C1 (stereo not drawn) [--CH(OH)C.ident.CH, [2S-[2α(S*),4aα,10aβ]]-α-Ethynyl-1,2,3,4,4a,9,10,10a-octahydro-7-hydroxy-2-methyl-2-phenanthrenemethanol]
effect of glutathione on inactivation of the enzyme (5 mM glutathione): 5 mM glutathione protects the enzyme from inactivation

C#CC(=O)[C@@]1(C)CC[C@@H]2c3ccc(O)cc3CC[C@H]2C1 [--COC.ident.CH, [2S-(2α,4aα,10aβ)]-1-(1,2,3,4,4a,9,10,10a-Octahydro-7-hydroxy-2-methyl-2-phenanthrenyl)-2-propyn-1-one]
substrate for the enzyme (presence of NAD+): not a substrate for the enzyme in the presence of NAD^+ | effect of NADH on inactivation of the enzyme (presence of NADH): inactivation of the enzyme is inhibited by the presence of NADH
